This note sets out measurements from patent publication US9139557B2, “Carboxamide compounds and their use as calpain inhibitors” (Abbott GmbH & Co. KG, priority 2006, dated 2015).

The structures appear in SMILES notation.

What all share (assay type): biochemical
For one test, the target named is T1, cathepsin S (Homo sapiens, UniProt P25774).
T1 construct: purchased Calbiochem 219343; host or cells: E. coli
Nature of the test: Cathepsin S enzyme inhibition in vitro (kinetic fluorescence assay). As to conditions: Ki(cathepsin S)/Ki(calpain) ratio. The method in brief: (§1)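 Kinetic fluorescence (ex 390/em 460 nm), RT. Calpain-I: 20 nM erythrocyte-derived, 100 μM Suc-Leu-Tyr-AMC, imidazole/CaCl2, pH 7.3. Cathepsins, pH 6.0 MES/EDTA/cysteine: B 0.25 nM liver, 100 μM Z-Phe-Arg-AMC; L 1 nM liver, 2 μM Z-Phe-Arg-AMC; S 0.5 nM recombinant, 20 μM Z-Val-Val-Arg-AMC. Cheng-Prusoff Ki, mean of 2–4 curves.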

Another test concerns the target T2, cathepsin L (Homo sapiens, UniProt P07711).
T2 construct: cathepsin L—isolated from human liver; purchased Calbiochem 219402; host or cells: human liver (tissue isolate)
Description: Cathepsin L enzyme inhibition in vitro (kinetic fluorescence assay). Conditions: Ki(cathepsin L)/Ki(calpain) ratio. In outline:
as §1

The next test deals with T3, cathepsin B (Homo sapiens, UniProt P07858).
T3 construct: cathepsin B—isolated from human liver; purchased Calbiochem 219362; host or cells: human liver (tissue isolate)
Nature of the test: Cathepsin B enzyme inhibition in vitro (kinetic fluorescence assay). Conditions: Ki(cathepsin B)/Ki(calpain) ratio. In outline: as §1

For a further test, the target named is T4, cathepsin K (Homo sapiens, UniProt P43235).
T4 construct: purchased Calbiochem 342001; host or cells: E. coli
T4 sequence (P43235 115-329): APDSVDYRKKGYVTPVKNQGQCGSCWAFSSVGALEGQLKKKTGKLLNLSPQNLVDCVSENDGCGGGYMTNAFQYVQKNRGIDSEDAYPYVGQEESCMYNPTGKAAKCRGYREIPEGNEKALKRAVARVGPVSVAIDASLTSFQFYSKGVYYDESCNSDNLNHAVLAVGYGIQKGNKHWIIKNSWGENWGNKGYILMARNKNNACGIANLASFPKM
Description: Cathepsin K enzyme inhibition in vitro (kinetic fluorescence assay). As to conditions: Ki(cathepsin K)/Ki(calpain) ratio.

T1 sequence (P25774 115-331): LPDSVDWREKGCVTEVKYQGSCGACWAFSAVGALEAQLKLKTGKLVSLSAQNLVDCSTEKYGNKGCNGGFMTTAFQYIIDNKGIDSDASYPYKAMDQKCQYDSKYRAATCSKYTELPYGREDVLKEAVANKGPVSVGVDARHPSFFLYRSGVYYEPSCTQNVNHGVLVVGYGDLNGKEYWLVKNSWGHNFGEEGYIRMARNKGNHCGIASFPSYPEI
T2 sequence (P07711 114-333): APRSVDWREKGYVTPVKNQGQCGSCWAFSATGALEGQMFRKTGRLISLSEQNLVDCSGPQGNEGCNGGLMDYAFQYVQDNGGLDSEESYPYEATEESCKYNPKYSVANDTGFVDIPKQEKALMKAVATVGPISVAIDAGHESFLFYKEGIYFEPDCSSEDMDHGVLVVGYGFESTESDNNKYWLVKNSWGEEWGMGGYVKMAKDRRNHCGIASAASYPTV

`COc1ccccc1-c1ccn(-c2ncccc2C(=O)NC(Cc2ccccc2)C(=O)C(N)=O)n1` (centres unmarked) [Example 90, N-[3-Amino-2,3-dioxo-1-(phenylmethyl)propyl]-2-{3-[2-(methyloxy)phenyl]-1H-pyrazol-1-yl}pyridine-3-carboxamide]: the “Sel cat. S” value on cathepsin S is reported as “++ (++ means a Ki(cathepsin S)/Ki(calpain) ratio of ≧100)”. The “Sel cat. L” value at cathepsin L was “++ (++ means a Ki(cathepsin L)/Ki(calpain) ratio of ≧50)”. In addition, the “Sel cat. B” value at cathepsin B was “++ (++ means a Ki(cathepsin B)/Ki(calpain) ratio of ≧30)”. The “Sel cat. K” value at cathepsin K was “+ (+ means 10≦Ki(cathepsin K)/Ki(calpain)<30)”.

With `NC(=O)C(=O)C(Cc1ccccc1)NC(=O)c1cccnc1-n1ccc(-c2c(Cl)cccc2Cl)n1` (centres unmarked) [Example 95, N-[3-Amino-2,3-dioxo-1-(phenylmethyl)propyl]-2-[3-(2,6-dichlorophenyl)-1H-pyrazol-1-yl]pyridine-3-carboxamide], the “Sel cat. S” value at cathepsin S is on record as “++ (++ means a Ki(cathepsin S)/Ki(calpain) ratio of ≧100)”. On cathepsin L, the “Sel cat. L” value is listed as “++ (++ means a Ki(cathepsin L)/Ki(calpain) ratio of ≧50)”. At cathepsin B, the “Sel cat. B” value is listed as “++ (++ means a Ki(cathepsin B)/Ki(calpain) ratio of ≧30)”. In addition, the “Sel cat. K” value on cathepsin K is on record as “++ (++ means a Ki(cathepsin K)/Ki(calpain) ratio of ≧30)”.

For `COc1ccc2c(c1)OCc1cn(-c3ncccc3C(=O)NC(Cc3ccccc3)C(=O)C(N)=O)nc1-2` (centres unmarked) [Example 142, N-[3-Amino-2,3-dioxo-1-(phenylmethyl)propyl]-2-[7-(methyloxy)chromeno[4,3-c]pyrazol-2(4H)-yl]pyridine-3-carboxamide], the “Sel cat. S” value at cathepsin S was “++ (++ means a Ki(cathepsin S)/Ki(calpain) ratio of ≧100)”. The “Sel cat. L” value at cathepsin L is “++ (++ means a Ki(cathepsin L)/Ki(calpain) ratio of ≧50)”. The “Sel cat. B” value on cathepsin B is reported as “+ (+ means 10≦Ki(cathepsin B)/Ki(calpain)<30)”. The “Sel cat. K” value on cathepsin K is given as “+ (+ means 10≦Ki(cathepsin K)/Ki(calpain)<30)”.

On to `NC(=O)C(=O)C(Cc1ccc(Cl)cc1)NC(=O)c1cccnc1-n1ccc(-c2ccccc2)n1` (centres unmarked) [Example 50, N-[3-Amino-1-(4-chlorobenzyl)-2,3-dioxopropyl]-2-(3-phenyl-1H-pyrazol-1-yl)nicotinamide], for which, on cathepsin S, the “Sel cat. S” value is “+ (+ means 50≦Ki(cathepsin S)/Ki(calpain)<100)”. On cathepsin L, the “Sel cat. L” value is recorded as “+ (+ means 30≦Ki(cathepsin L)/Ki(calpain)<50)”. The “Sel cat. B” value on cathepsin B was “+ (+ means 10≦Ki(cathepsin B)/Ki(calpain)<30)”. Besides, the “Sel cat. K” value at cathepsin K is “+ (+ means 10≦Ki(cathepsin K)/Ki(calpain)<30)”.

`COc1ccc(CC(NC(=O)c2cccnc2-n2ccc(-c3cccc4ccccc34)n2)C(=O)C(N)=O)cc1` (centres unmarked) [Example 135, N-(3-Amino-1-{[4-(methyloxy)phenyl]methyl}-2,3-dioxopropyl)-2-(3-naphthalen-1-yl-1H-pyrazol-1-yl)pyridine-3-carboxamide]: the “Sel cat. S” value at cathepsin S is reported as “++ (++ means a Ki(cathepsin S)/Ki(calpain) ratio of ≧100)”. In addition, at cathepsin L, the “Sel cat. L” value is recorded as “++ (++ means a Ki(cathepsin L)/Ki(calpain) ratio of ≧50)”. Moreover, the “Sel cat. B” value at cathepsin B was “++ (++ means a Ki(cathepsin B)/Ki(calpain) ratio of ≧30)”. Also, the “Sel cat. K” value at cathepsin K is “++ (++ means a Ki(cathepsin K)/Ki(calpain) ratio of ≧30)”.

Consider `COc1ccc(CC(NC(=O)c2cccnc2-n2ccc(-c3ccc(F)cc3)n2)C(=O)C(N)=O)cc1` (centres unmarked) [Example 81, N-[3-Amino-1-(4-methoxybenzyl)-2,3-dioxopropyl]-2-[3-(4-fluorophenyl)-1H-pyrazol-1-yl]nicotinamide], for which, at cathepsin S, the “Sel cat. S” value was “++ (++ means a Ki(cathepsin S)/Ki(calpain) ratio of ≧100)”. Further, the “Sel cat. L” value at cathepsin L is “++ (++ means a Ki(cathepsin L)/Ki(calpain) ratio of ≧50)”. The “Sel cat. B” value on cathepsin B is “+ (+ means 10≦Ki(cathepsin B)/Ki(calpain)<30)”. In addition, on cathepsin K, the “Sel cat. K” value was “+ (+ means 10≦Ki(cathepsin K)/Ki(calpain)<30)”.

`NC(=O)C(=O)C(Cc1ccc(F)cc1)NC(=O)c1cccnc1-n1ccc(-c2ccccc2OC(F)(F)F)n1` (centres unmarked) [Example 152, N-{3-Amino-1-[(4-fluorophenyl)methyl]-2,3-dioxopropyl}-2-(3-{2-[(trifluoromethyl)oxy]phenyl}-1H-pyrazol-1-yl)pyridine-3-carboxamide]: on cathepsin S, the “Sel cat. S” value is on record as “++ (++ means a Ki(cathepsin S)/Ki(calpain) ratio of ≧100)”. Further, the “Sel cat. L” value at cathepsin L is listed as “++ (++ means a Ki(cathepsin L)/Ki(calpain) ratio of ≧50)”. Also, the “Sel cat. B” value at cathepsin B is listed as “++ (++ means a Ki(cathepsin B)/Ki(calpain) ratio of ≧30)”. Moreover, the “Sel cat. K” value at cathepsin K is listed as “++ (++ means a Ki(cathepsin K)/Ki(calpain) ratio of ≧30)”.

In the case of `NC(=O)C(=O)C(Cc1ccccc1)NC(=O)c1cccnc1-n1ccc(-c2cc(C(F)(F)F)ccc2CN2CCOCC2)n1` (centres unmarked) [Example 163, N-[3-Amino-2,3-dioxo-1-(phenylmethyl)propyl]-2-{3-[2-(morpholin-4-ylmethyl)-5-(trifluoromethyl)phenyl]-1H-pyrazol-1-yl}pyridine-3-carboxamide], the “Sel cat. S” value at cathepsin S is listed as “++ (++ means a Ki(cathepsin S)/Ki(calpain) ratio of ≧100)”. The “Sel cat. L” value on cathepsin L is “+ (+ means 30≦Ki(cathepsin L)/Ki(calpain)<50)”. Further, the “Sel cat. B” value at cathepsin B is “+ (+ means 10≦Ki(cathepsin B)/Ki(calpain)<30)”. Besides, the “Sel cat. K” value on cathepsin K is given as “+ (+ means 10≦Ki(cathepsin K)/Ki(calpain)<30)”.

As to `NC(=O)C(=O)C(Cc1ccccc1)NC(=O)c1cccnc1-n1ccc(-c2cccc(Cl)c2Cl)n1` (centres unmarked) [Example 115, N-[3-Amino-2,3-dioxo-1-(phenylmethyl)propyl]-2-[3-(2,3-dichlorophenyl)-1H-pyrazol-1-yl]pyridine-3-carboxamide], at cathepsin S, the “Sel cat. S” value was “++ (++ means a Ki(cathepsin S)/Ki(calpain) ratio of ≧100)”. On cathepsin L, the “Sel cat. L” value was “++ (++ means a Ki(cathepsin L)/Ki(calpain) ratio of ≧50)”. For the same molecule, on cathepsin B, the “Sel cat. B” value is given as “++ (++ means a Ki(cathepsin B)/Ki(calpain) ratio of ≧30)”. The “Sel cat. K” value at cathepsin K is recorded as “++ (++ means a Ki(cathepsin K)/Ki(calpain) ratio of ≧30)”.

Take `NC(=O)C(=O)C(Cc1ccccc1)NC(=O)c1cccnc1-n1ccc(-c2cccc3c2OC(F)(F)O3)n1` (centres unmarked) [Example 119, N-[3-Amino-2,3-dioxo-1-(phenylmethyl)propyl]-2-[3-(2,2-difluoro-1,3-benzodioxol-4-yl)-1H-pyrazol-1-yl]pyridine-3-carboxamide]: the “Sel cat. S” value at cathepsin S is reported as “++ (++ means a Ki(cathepsin S)/Ki(calpain) ratio of ≧100)”. Besides, at cathepsin L, the “Sel cat. L” value is “++ (++ means a Ki(cathepsin L)/Ki(calpain) ratio of ≧50)”. Also, the “Sel cat. B” value at cathepsin B is listed as “++ (++ means a Ki(cathepsin B)/Ki(calpain) ratio of ≧30)”. The “Sel cat. K” value at cathepsin K was “++ (++ means a Ki(cathepsin K)/Ki(calpain) ratio of ≧30)”.

`NC(=O)C(=O)C(Cc1ccccc1)NC(=O)c1cccnc1-n1cc2c(n1)-c1ccccc1OC2` (centres unmarked) [Example 100, N-[3-Amino-2,3-dioxo-1-(phenylmethyl)propyl]-2-chromeno[4,3-c]pyrazol-2(4H)-ylpyridine-3-carboxamide]: the “Sel cat. S” value on cathepsin S is reported as “++ (++ means a Ki(cathepsin S)/Ki(calpain) ratio of ≧100)”. In addition, the “Sel cat. L” value on cathepsin L is on record as “++ (++ means a Ki(cathepsin L)/Ki(calpain) ratio of ≧50)”. Further, the “Sel cat. B” value at cathepsin B was “+ (+ means 10≦Ki(cathepsin B)/Ki(calpain)<30)”. For the same molecule, on cathepsin K, the “Sel cat. K” value was “++ (++ means a Ki(cathepsin K)/Ki(calpain) ratio of ≧30)”.
